Assay results taken from patent publication US20100056565A1, “Heterocyclic Derivatives as M3 Muscarinic Receptors” (priority 2007, published 2010).
Structures can show the parent of a compound that is named as a salt.

Each compound was assayed against T1, Recombinant human M3 receptor (Homo sapiens, UniProt P20309) (assay: biochemical). Conditions: M3 Ki (SPA format, SPA format).
T1 construct: expressed in transfected cells; host or cells: CHO-K1 cells (membranes)
T1 sequence (P20309 whole entry): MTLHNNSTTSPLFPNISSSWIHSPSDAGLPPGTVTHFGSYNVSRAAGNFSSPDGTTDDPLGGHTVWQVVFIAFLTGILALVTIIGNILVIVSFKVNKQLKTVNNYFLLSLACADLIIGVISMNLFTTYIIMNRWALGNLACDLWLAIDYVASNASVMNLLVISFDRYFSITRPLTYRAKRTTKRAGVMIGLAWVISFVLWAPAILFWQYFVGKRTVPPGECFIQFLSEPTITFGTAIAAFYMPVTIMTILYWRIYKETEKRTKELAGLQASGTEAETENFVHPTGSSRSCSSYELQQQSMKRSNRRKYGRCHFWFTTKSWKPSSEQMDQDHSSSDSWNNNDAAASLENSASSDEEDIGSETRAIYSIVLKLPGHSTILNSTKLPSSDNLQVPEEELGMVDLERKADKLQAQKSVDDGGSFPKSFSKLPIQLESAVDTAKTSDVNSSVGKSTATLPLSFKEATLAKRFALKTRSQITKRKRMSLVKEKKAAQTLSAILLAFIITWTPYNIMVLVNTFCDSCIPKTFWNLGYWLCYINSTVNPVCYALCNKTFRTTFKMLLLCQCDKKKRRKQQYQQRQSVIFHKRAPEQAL
Type: binding
Protocol: Recombinant human M3 receptor was expressed in CHO-K1 cells. Cell membranes were prepared and binding of [3H]-N-methyl scopolamine ([3H]-NMS) and compounds was assessed by a scintillation proximity assay (SPA). The incubation time was 16 hours at room temperature in the presence of 1% (v/v) DMSO. The assay was performed in white 96 well clear-bottomed NBS plates (Corning). Prior to the assay, the CHO cell membranes containing M3 receptor were coated onto SPA WGA (Wheat germ agglutinin) beads (GE Healthcare). Non specific binding was determined in the presence of 1 μM Atropine.
Radioactivity was measured on a Microbeta scintillation counter (PerkinElmer) using a 3H protocol with a 2 minutes per well read time. […] Concentration dependent inhibition of [3H]-NMS binding by compounds was expressed as pIC50.
In the case of `O=C(O[C@H]1C[N+]2(Cc3cnc([C@](O)(c4ccccc4)C4CCCCC4)o3)CCC1CC2)c1ccccc1` [Example 14, (R)-3-benzoyloxy-1-[2-((R)-cyclohexyl-hydroxy-phenyl-methyl)-oxazol-5-ylmethyl]-1-azonia-bicyclo[2.2.2]octane; formate], the Ki is reported as 5 to 20 nM.

Same assay, conditions: SPA format; read-out: M3 Ki (SPA format)
Compound `O[C@](c1ccccc1)(c1ncc(C[N+]23CCC(CC2)[C@@H](Oc2ccccc2)C3)o1)C1CCCCC1` [Example 9, (R)-[2-((R)—Cyclohexyl-hydroxy-phenyl-methyl)-oxazol-5-ylmethyl]-3-phenoxy-1-azonia-bicyclo[2.2.2]octane; bromide] has a Ki of less than 5 nM. `O[C@](c1ccccc1)(c1ncc(C[N+]23CCC(CC2)[C@@H](OCc2ccccc2)C3)o1)C1CCCCC1` [Example 12, (R)-3-(Benzyloxy)-1-[2-(R)-cyclohexyl-hydroxy-phenyl-methyl)-oxazol-5-ylmethyl]-1-azonia-bicyclo[2.2.2]octane; bromide] showed a Ki of less than 5 nM. Work on `O=C(N[C@H]1C[N+]2(Cc3cnc([C@](O)(c4ccccc4)C4CCCCC4)o3)CCC1CC2)c1ccccc1` [Example 13, (R)-3-benzoylamino-1-[2-((R)-cyclohexyl-hydroxy-phenyl-methyl)-oxazol-5-ylmethyl]-1-azonia-bicyclo[2.2.2]octane; formate] yielded a Ki greater than 20 nM. Compound `O=C(N[C@@H]1C[N+]2(Cc3cnc([C@](O)(c4ccccc4)C4CCCCC4)o3)CCC1CC2)c1ccccc1` [Example 15, (S)-3-Benzoylamino-1-[2-((R)-cyclohexyl-hydroxy-phenyl-methyl)-oxazol-5-ylmethyl]-1-azonia-bicyclo[2.2.2]octane; formate] has a Ki of less than 5 nM. `O[C@](c1ccccc1)(c1ncc(C[N+]23CCC(CC2)C(OCc2ccccc2)C3)o1)C1CCCCC1` (stereo partly drawn) [Example 16, 3-benzyloxy-1-[2-((R)-cyclohexyl-hydroxy-phenyl-methyl)-oxazol-5-ylmethyl]-1-azonia-bicyclo[2.2.2]octane; formate] was tested, and the Ki was less than 5 nM. Compound `O=C(N[C@@H]1C[N+]2(Cc3cnc([C@](O)(c4ccccc4)C4CCCCC4)o3)CCC1CC2)c1ccc(Cl)cc1` [Example 19, (S)-3-(4-chloro-benzoylamino)-1-[2-((R)-cyclohexyl-hydroxy-phenyl-methyl)-oxazol-5-ylmethyl]-1-azonia-bicyclo[2.2.2]octane; formate] has a Ki of less than 5 nM. In the case of `N#Cc1ccc(CO[C@H]2C[N+]3(Cc4cnc([C@](O)(c5ccccc5)C5CCCCC5)o4)CCC2CC3)cc1` [Example 21, (R)-3-(4-cyano-benzyloxy)-1-[2-((R)-cyclohexyl-hydroxy-phenyl-methyl)-oxazol-5-ylmethyl]-1-azonia-bicyclo[2.2.2]octane; formate], the Ki is reported as less than 5 nM. Work on `O[C@](c1ccccc1)(c1ncc(C[N+]23CCC(CC2)[C@@H](OCc2ccc(Cl)c(Cl)c2)C3)o1)C1CCCCC1` [Example 22, (R)-1-[2-((R)-cyclohexyl-hydroxy-phenyl-methyl)-oxazol-5-ylmethyl]-3-(3,4-dichloro-benzyloxy)-1-azonia-bicyclo[2.2.2]octane; formate] yielded a Ki of less than 5 nM. For `O[C@](c1ccccc1)(c1ncc(C[N+]23CCC(CC2)[C@@H](OCc2ccc(Cl)cc2)C3)o1)C1CCCCC1` [Example 23, (R)-3-(4-Chloro-benzyloxy)-1-[2-((R)-cyclohexyl-hydroxy-phenyl-methyl)-oxazol-5-ylmethyl]-1-azonia-bicyclo[2.2.2]octane; bromide], the Ki was less than 5 nM. With `O[C@](c1ccccc1)(c1ncc(C[N+]23CCC(CC2)[C@H](COc2ccccc2)C3)o1)C1CCCCC1` [Example 24, (S)-1-[2-((R)—Cyclohexyl-hydroxy-phenyl-methyl)-oxazol-5-ylmethyl]-3-phenoxymethyl-1-azonia-bicyclo[2.2.2]octane; bromide] the Ki was less than 5 nM. With `OC(c1ccccc1)(c1ccccc1)c1ncc(C[N+]23CCC(CC2)[C@@H](COc2ccccc2)C3)o1` [Example 26, (R)-1-[2-(Hydroxy-diphenyl-methyl)-oxazol-5-ylmethyl]-3-phenoxymethyl-1-azonia-bicyclo[2.2.2]octane; bromide] the Ki was less than 5 nM. Compound `OC(c1ccccc1)(c1ccccc1)c1ncc(C[N+]23CCC(CC2)[C@@H](OCc2ccccc2)C3)o1` [Example 27, (R)-3-Benzyloxy-1-[2-(hydroxy-diphenyl-methyl)-oxazol-5-ylmethyl]-1-azonia-bicyclo[2.2.2]octane; bromide] has a Ki of less than 5 nM. `OC(c1ccccc1)(c1ccccc1)c1ncc(C[N+]23CCC(CC2)[C@@H](OCc2ccc(Cl)cc2)C3)o1` [Example 28, (R)-3-(4-Chloro-benzyloxy-1-[2-(hydroxy-diphenyl-methyl)-oxazol-5-ylmethyl]-1-azonia-bicyclo[2.2.2]octane; bromide] was tested, and the Ki was 5 to 20 nM. Work on `OC(c1ccccc1)(c1ncc(C[N+]23CCC(CC2)[C@@H](OCc2ccccc2)C3)s1)C1CCCCC1` (stereo partly drawn) [Example 29, (R)-3-Benzyloxy-1-[2-(cyclohexyl-hydroxy-phenyl-methyl)-thiazol-5-ylmethyl]-1-azonia-bicyclo[2.2.2]octane; bromide] yielded a Ki of less than 5 nM. `O[C@](c1ccccc1)(c1ncc(C[N+]23CCC(CC2)[C@@H](OCc2ccc(F)cc2)C3)o1)C1CCCCC1` [Example 32, (R)-1-[2-((R)—Cyclohexyl-hydroxy-phenyl-methyl)-oxazol-5-ylmethyl]-3-(4-fluoro-benzyloxy)-1-azonia-bicyclo[2.2.2]octane; bromide] was tested, and the Ki was less than 5 nM. For `O[C@](c1ccccc1)(c1ncc(C[N+]23CCC(CC2)[C@@H](OCc2ccc(C(F)(F)F)cc2)C3)o1)C1CCCCC1` [Example 33, (R)-1-[2-((R)—Cyclohexyl-hydroxy-phenyl-methyl)-oxazol-5-ylmethyl]-3-(4-trifluoromethyl-benzyloxy)-1-azonia-bicyclo[2.2.2]octane; bromide], the Ki was less than 5 nM. In the case of `Cc1ccc(CO[C@H]2C[N+]3(Cc4cnc([C@](O)(c5ccccc5)C5CCCCC5)o4)CCC2CC3)cc1` [Example 34, (R)-1-[2-((R)—Cyclohexyl-hydroxy-phenyl-methyl)-oxazol-5-ylmethyl]-3-(4-methyl-benzyloxy)-1-azonia-bicyclo[2.2.2]octane; bromide], the Ki is reported as less than 5 nM. Compound `O[C@](c1ccccc1)(c1ncc(C[N+]23CCC(CC2)[C@@H](OCc2cccc(F)c2)C3)o1)C1CCCCC1` [Example 35, (R)-1-[2-((R)-cyclohexyl-hydroxy-phenyl-methyl)-oxazol-5-ylmethyl]-3-(3-fluoro-benzyloxy)-1-azonia-bicyclo[2.2.2]octane; formate] has a Ki of less than 5 nM. Work on `O[C@](c1ccccc1)(c1ncc(C[N+]23CCC(CC2)C(CCc2ccccc2)C3)o1)C1CCCCC1` (stereo partly drawn) [Example 36, 1-[2-((R)—Cyclohexyl-hydroxy-phenyl-methyl)-oxazol-5-ylmethyl]-3-phenethyl-1-azonia-bicyclo[2.2.2]octane; bromide] yielded a Ki of less than 5 nM. For `OC(c1ccccc1)(c1ccccc1)c1ncc(C[N+]23CCC(CC2)C(CCc2ccccc2)C3)o1` (stereo not shown) [Example 37, 1-[2-(Hydroxy-diphenyl-methyl)-oxazol-5-ylmethyl]-3-phenethyl-1-azonia-bicyclo[2.2.2]octane; bromide], the Ki was less than 5 nM. `CC(C)=CCO[C@H]1C[N+]2(Cc3cnc([C@](O)(c4ccccc4)C4CCCCC4)o3)CCC1CC2` [Example 38, (R)-1-[2-((R)-cyclohexyl-hydroxy-phenyl-methyl)-oxazol-5-ylmethyl]-3-(3-methyl-but-2-enyloxy)-1-azonia-bicyclo[2.2.2]octane; formate] showed a Ki of less than 5 nM.
